Test system: Influenza A virus
Assay: Antiviral activity against Oseltamivir-resistant Influenza A virus
Type: functional, organism-based

Cc1cc(=O)oc2c1ccc1oc(C(=O)c3ccccc3)c(-c3ccccc3)c12
EC50: 21 nM

— ChEMBL document CHEMBL5257032, “Therapeutic potential of coumarins as antiviral agents” (Eur J Med Chem, 2016)
